Results from patent US20040235813A1, “Compounds that inhibit hsp90 and stimulate hsp70 and hsp40, useful in the prevention or treatment of diseases associated with protein aggregation and amyloid formation” (priority 2001, published 2004).

What was measured:
Hsp40 = experiment: Immunoblot of Hsp40 expression in GA treated COS-1 cells expressing EGFP-HD72Q; assay type: cell-based; conditions: GA 360 nM, 40 hours
Description: (§1) Equal amounts (10 μg) of protein were loaded. […] Aggregates were detected using the filter retardation assay.
(§2) Control cells were treated with DMSO.
(§3) Protein concentration was determined by the BioRad assay.

Hsp70 = experiment: Immunoblot of Hsp70 expression in GA treated COS-1 cells expressing EGFP-HD72Q; assay type: cell-based; conditions: GA 360 nM, 40 hours
Description: as §1, §2, §3

EGFP-HD72Q = experiment: Immunoblot of EGFP-HD72Q expression in GA treated COS-1 cells; assay type: cell-based; conditions: GA 18-360 nM, 40 hours
Description: (§4) (A) Expression of EGFP-HD72Q, Hsp40, Hsp70, and Hsp90 in COS-1 cells. […] Equal amounts (10 μg) of protein were loaded. […] Aggregates were detected using the filter retardation assay. Filters were probed with the HD1 antibody and signal intensities quantified using a Fuji-imager (LAS 2000). […] Values shown are the mean of three independent experiments (±S.E).
(§5) A further linker was introduced in order to generate the appropriate reading frame, resulting in pTL1-HA3. Hsp70-pTLHA3 was generated by PCR amplification of the human Hsp70A gene and cloning into pTL1-HA3. Hdj-1-pTL10Flag was generated by ligating the human HDJ-1 gene, derived from pQE9-His-Hsp40 (33), into pTL10SFlag (a kind gift of D. Devys and J.-L. Mandel). pEGFP-HD72Q was generated by PCR amplification of the exon 1 of human HD from patient DNA and cloning into pEGFP-C1 (Clontech). All constructs were verified by sequencing.
Control cells were treated with DMSO. […]
SDS-PAGE and Western blot analysis was performed according to standard procedures. […] Captured aggregates were detected by incubation with HD1 IgG (diluted 1:5000) followed by incubation with alkaline phosphatase conjugated anti-rabbit IgG and the fluorescent substrate AttoPhos. Quantitation of the captured aggregates was performed using a Fuji-imager (LAS 2000) and AIDA 1.0 image analysis software.

[1] = test system: SDS-insoluble EGFP-HD72Q protein aggregates; experiment: Filter retardation assay for SDS-insoluble EGFP-HD72Q protein aggregates in COS-1 cells; assay type: cell-based, monkey; conditions: filtration assay
Description: as §4, §5
Control cells were treated with DMSO. As alternative transfection method, the Lipofectamine Plus Reagent (GibcoBRL Life Technologies) was used according to the manufacturer's instruction.
SDS-PAGE and Western blot analysis was performed according to standard procedures. For the filter retardation assay (27,30) protein samples (1-20 μg) were heated at 98° C. for 3 min in 2% SDS and 50 mM DTT and filtered through a 0.2 μm cellulose acetate membrane (Schleicher & Schuell) using a BRL dot-blot filtration unit. Captured aggregates were detected by incubation with HD1 IgG (diluted 1:5000) followed by incubation with alkaline phosphatase conjugated anti-rabbit IgG and the fluorescent substrate AttoPhos. Quantitation of the captured aggregates was performed using a Fuji-imager (LAS 2000) and AIDA 1.0 image analysis software.
Using this assay SDS-resistant huntingtin protein aggregates can be immunologically detected and quantified.

With `COC1=C2C[C@@H](C)C[C@H](OC)[C@H](O)[C@@H](C)/C=C(\C)[C@H](OC(N)=O)[C@@H](OC)/C=C\C=C(/C)C(=O)NC(=CC1=O)C2=O` [GA, Geldanamycin] the “up-regulation of Hsp40 compared to the untreated controls” value (Hsp40) was 3-4 fold, the “up-regulation of Hsp70 compared to the untreated controls” value (Hsp70) was 3-4 fold and the “effect on EGFP-HD72Q expression” value (EGFP-HD72Q) was “no effect”. The “reduction of the amount of insoluble protein aggregates” value (shortened to “reduction”) ([1]; GA 18 nM) was “approximately 30%”, the “reduction” value ([1]; GA 90 nM) was ~60% and the “reduction” value ([1]; GA 180 nM) was ~70%. The “reduction” value ([1]; GA 360 nM) was ~80%.
